In the NIST ThermoML archive (doi:10.1016/j.tca.2015.02.020):

Assay: molar heat capacity at constant pressure; xn = mol fraction of the nth substance listed
Conditions: 101 kPa, Liquid, Small sample (50 mg) DSC

NCCCO [3-amino-1-propanol] + O
Conditions | molar heat capacity at constant pressure [J/K/mol]
207.56 K, x1 = 0.16 | 73.85
207.57 K, x1 = 0.26 | 81.82
208.04 K, x1 = 0.68 | 129.03
209.45 K, x1 = 0.19 | 75.33
209.97 K, x1 = 0.68 | 142.1
210.91 K, x1 = 0.19 | 78.22
211.07 K, x1 = 0.26 | 88.06
212.29 K, x1 = 0.16 | 75.21
212.29 K, x1 = 0.26 | 82.81
212.78 K, x1 = 0.68 | 130.16
213.28 K, x1 = 0.68 | 142.67
214.19 K, x1 = 0.19 | 76.49
214.23 K, x1 = 0.19 | 79.09
214.38 K, x1 = 0.26 | 89.05
217.03 K, x1 = 0.16 | 76.56
217.04 K, x1 = 0.26 | 84.12
217.51 K, x1 = 0.68 | 131.3
218.93 K, x1 = 0.19 | 78.22
220.86 K, x1 = 0.19 | 81.11
221.02 K, x1 = 0.26 | 90.36
221.77 K, x1 = 0.16 | 78.19
221.77 K, x1 = 0.26 | 85.11
222.25 K, x1 = 0.68 | 133
223.67 K, x1 = 0.19 | 79.95
224.18 K, x1 = 0.19 | 83.13
224.35 K, x1 = 0.26 | 91.35
226.51 K, x1 = 0.16 | 79.55
226.51 K, x1 = 0.26 | 86.42
226.99 K, x1 = 0.68 | 133.57
228.4 K, x1 = 0.19 | 81.39
230.81 K, x1 = 0.19 | 87.46
230.97 K, x1 = 0.26 | 93.32
231.25 K, x1 = 0.16 | 81.18
231.25 K, x1 = 0.26 | 88.06
231.73 K, x1 = 0.68 | 134.71
233.15 K, x1 = 0.19 | 82.84
234.29 K, x1 = 0.26 | 94.31
235.99 K, x1 = 0.16 | 82.54
235.99 K, x1 = 0.26 | 89.71
236.47 K, x1 = 0.68 | 135.85
237.88 K, x1 = 0.19 | 84.28
240.73 K, x1 = 0.16 | 83.89
240.73 K, x1 = 0.26 | 91.02
240.77 K, x1 = 0.19 | 89.19
240.93 K, x1 = 0.26 | 96.61
241.21 K, x1 = 0.68 | 137.55
242.63 K, x1 = 0.19 | 85.72
244.1 K, x1 = 0.19 | 90.63
244.25 K, x1 = 0.26 | 97.92
245.48 K, x1 = 0.16 | 85.52
245.48 K, x1 = 0.26 | 92.66
245.96 K, x1 = 0.68 | 138.69
247.38 K, x1 = 0.19 | 87.17
249.79 K, x1 = 0.16 | 90.14
250.23 K, x1 = 0.16 | 86.88
250.23 K, x1 = 0.26 | 94.31
250.71 K, x1 = 0.68 | 140.39
250.75 K, x1 = 0.19 | 93.23
250.9 K, x1 = 0.26 | 100.22
252.13 K, x1 = 0.19 | 88.61
253.11 K, x1 = 0.16 | 91.5
254.07 K, x1 = 0.19 | 94.09
254.23 K, x1 = 0.26 | 101.21
254.97 K, x1 = 0.16 | 88.24
254.98 K, x1 = 0.26 | 95.95
255.46 K, x1 = 0.68 | 142.1
256.88 K, x1 = 0.19 | 90.05
259.73 K, x1 = 0.16 | 89.32
259.73 K, x1 = 0.26 | 97.59
259.77 K, x1 = 0.16 | 93.94
260.2 K, x1 = 0.68 | 143.8
260.72 K, x1 = 0.19 | 96.4
260.88 K, x1 = 0.26 | 103.84
261.62 K, x1 = 0.19 | 91.5
263.1 K, x1 = 0.16 | 95.03
264.05 K, x1 = 0.19 | 97.56
264.21 K, x1 = 0.26 | 104.82
264.47 K, x1 = 0.16 | 90.68
264.48 K, x1 = 0.26 | 99.24
264.96 K, x1 = 0.68 | 146.08
266.1 K, x1 = 0.16 | 96.11
266.1 K, x1 = 0.19 | 98.13
266.1 K, x1 = 0.26 | 105.48
266.38 K, x1 = 0.19 | 92.94
269.23 K, x1 = 0.16 | 91.77
269.23 K, x1 = 0.26 | 100.55
269.72 K, x1 = 0.68 | 147.21
269.76 K, x1 = 0.16 | 97.2
269.76 K, x1 = 0.68 | 158.01
270.7 K, x1 = 0.19 | 99.29
270.87 K, x1 = 0.26 | 106.79
271.14 K, x1 = 0.19 | 94.38
273.09 K, x1 = 0.16 | 98.01
273.1 K, x1 = 0.68 | 156.88
274.02 K, x1 = 0.16 | 92.85
274.02 K, x1 = 0.26 | 102.19
274.07 K, x1 = 0.19 | 100.16
274.24 K, x1 = 0.26 | 107.45
274.52 K, x1 = 0.68 | 149.49
278.94 K, x1 = 0.16 | 94.21
278.94 K, x1 = 0.19 | 96.4
278.94 K, x1 = 0.26 | 103.51
279.44 K, x1 = 0.68 | 151.19
279.97 K, x1 = 0.16 | 99.1
279.98 K, x1 = 0.68 | 157.45
280.95 K, x1 = 0.19 | 101.02
281.12 K, x1 = 0.26 | 108.77
283.41 K, x1 = 0.16 | 98.83
283.42 K, x1 = 0.68 | 156.88
283.84 K, x1 = 0.16 | 94.75
283.85 K, x1 = 0.19 | 97.27
283.85 K, x1 = 0.26 | 104.82
284.35 K, x1 = 0.68 | 151.76
284.4 K, x1 = 0.19 | 101.02
284.56 K, x1 = 0.26 | 108.77
